Several values for one entry are separate records, joined by “and”; a condition that tells them apart may be missing. Equal entries are not always repeated.
System: Rat Liver Gene Expression
Experiment: Rat liver gene expression on Rat HepatoChips microarrays, colorimetric silver detection
Conditions: liver mRNA of treated rat, 100 mg/kg per day orally for 4 days, raw spot intensity mean, 100 mg/kg/day
Procedure: Female Sprague-Dawley CD rats (aged 10-12 weeks) were dosed orally with 100 mg/kg per day of either Sodium Phenobarbitone (PB) or pregnenalone 16-carbonitrile (PCN) (Sigma-Aldrich Co. Poole, Dorset, UK) for 4 days. Control animals received corresponding quantities (5 ml/kg body weight) of the 0.56% (w/v) gum tragacanth vehicle. Animals were killed by decapitation and the livers immediately removed for further mRNA extraction.
The arrays also include positive and negative controls for the hybridization process, an internal standard control and 8 housekeeping genes.
The Rat HepatoChips is composed of single strand DNA probes attached to the glass by a covalent link. The length of the DNA nucleotide sequences has been optimized. They are the same for all genes and are located near the 3′ end of the transcript. All probes have been designed to be gene specific and have been prepared using rat cDNAs.
Labeled cDNA was prepared using 2 μg mRNA isolated using the FastTrack 2.0 mRNA isolation Kit (Invitrogen). A synthetic poly (A)+tailed mRNA was spiked to the purified mRNA as internal standard to assist in quantification and estimation of experimental variation introduced during labeling and reading. mRNA was added to 2 μl of oligo dT(12-18) primer (0.5 μg/ul) (Gibco BRL), RNase free water was used to bring the volume to 9 μl, and the mixture was denatured at 70° C. for 10 min and then chilled on ice for 5 min. The reverse transcription was performed by adding the following components to the annealed probe/template on ice: 4 μl of First Strand Buffer (250 mM Tris-HCl pH 8.3, 375 mM KCl, 15 mM MgCl2) (Gibco BRL), 2 ul of DTT 0.1 M (Gibco BRL), 40 units of RNasin ribonuclease inhibitor (Promega), 500 μM dATP (Roche), 500 μM dTTP (Roche), 500 μM dGTP (Roche), 80 μM dCTP (Roche), 80 μM biotin-1′-dCTP (NEN). The reaction mixture was mixed gently by flicking the tube and incubated for 5 min at room temperature. 300 units of SuperScript II RT (RNase H—) (Gibco BRL) was added to the reaction mixture and the reverse transcription was allowed to proceed for 90 min at 42° C. Then an additional 300 units of SuperScript II RT was added and incubation was continued at 42° C. for another 90 min. The reaction was ended by heat inactivation at 70° C. for 15 min. To remove RNA complementary to the cDNA, a treatment with RNase H was performed at 37° C. for 20 min following by a heat denaturation at 95° C. for 3 minutes and cooled on ice before use. No further RT product purification was necessary.
The hybridization was performed in a hybridization chamber (Biozym, Landgraaf, The Netherlands) containing the hybridization buffer ‘Hepatobuffer’ and a positive hybridization control (a biotinylated amplicons, at a concentration of 25 nM). Hybridization was carried out overnight at 60° C. The arrays were then washed four times for 2 min with washing buffer at room temperature.
The presence of biotinylated hybrids on the microarray was detected using a antibody anti-biotin conjugate coupled colloidal gold. The arrays were then incubated with a 1:100 dilution of conjugate solution in a blocking buffer (100 mM maleic buffer pH 7.5, 150 mM NaCl and 0.1% milk powder) for […] at room temperature. The array were then washed five times for 2 min at room temperature, rinsed briefly with deionized water then dried. Then array is incubated at room temperature for 5 min in the Silver Blue Solution (AAT, Namur, Belgium), rinsed in water, dried 5′ at 37° C. and read with the scanner described herein.
The scanner used had the following scanning parameters:
Bit depth: 16 bits grayscale (65536 grey levels)
no additional correction of the image (i.e. standard values for contrast, brightness, . . . )
Scanning software: Silverfast from LaserSoft
Quantification Software: Imagene 4.2 from Biodiscovery

SMILES: CCC1(c2ccccc2)C(=O)NC(=O)NC1=O [phenobarbital, Sodium Phenobarbitone]
- Test Signal, ACO (gene ACO): 51686 16-bits grayscale and 51619 16-bits grayscale
- Test Signal, Albumin (gene Albumin): 63921 16-bits grayscale and 63641 16-bits grayscale
- Test Signal, ApoJ (gene ApoJ): 52452 16-bits grayscale and 55866 16-bits grayscale
- Test Signal, B-actin (gene B-actin): 52992 16-bits grayscale and 55039 16-bits grayscale
- Test Signal, Bax (gene Bax): 24767 16-bits grayscale and 27814 16-bits grayscale
- Test Signal, Bcl-2 (gene Bcl-2): 21220 16-bits grayscale and 21509 16-bits grayscale
- Test Signal, C-jun (gene C-jun): 22382 16-bits grayscale and 23523 16-bits grayscale
- Test Signal, C-myc (gene C-myc): 27229 16-bits grayscale and 28315 16-bits grayscale
- Test Signal, C/EBP (gene C/EBP): 31394 16-bits grayscale and 31754 16-bits grayscale
- Test Signal, Cox-2 (gene Cox-2): 20187 16-bits grayscale and 20484 16-bits grayscale
- Test Signal, Cyclin D1 (gene Cyclin D1): 25036 16-bits grayscale and 25587 16-bits grayscale
- Test Signal, Cyp 1a1 (gene Cyp 1a1): 20728 16-bits grayscale and 20972 16-bits grayscale
- Test Signal, Cyp 1b1 (gene Cyp 1b1): 22231 16-bits grayscale and 21071 16-bits grayscale
- Test Signal, Cyp 2b (gene Cyp 2b): 62971 16-bits grayscale and 62867 16-bits grayscale
- Test Signal, Cyp 3a (gene Cyp 3a): 63098 16-bits grayscale and 63114 16-bits grayscale
- Test Signal, Cyp 4a1 (gene Cyp 4a1): 35089 16-bits grayscale and 35673 16-bits grayscale
- Test Signal, Cyt oxidase 1 (gene Cyt oxidase 1): 63947 16-bits grayscale and 62432 16-bits grayscale
- Test Signal, Elk (gene Elk): 20632 16-bits grayscale and 20630 16-bits grayscale
- Test Signal, Enoyl CoA (gene Enoyl CoA): 60758 16-bits grayscale and 60738 16-bits grayscale
- Test Signal, Erk-1 (gene Erk-1): 22998 16-bits grayscale and 23360 16-bits grayscale
- Test Signal, Ferritin (gene Ferritin): 60237 16-bits grayscale and 59913 16-bits grayscale
- Test Signal, Fibronectin (gene Fibronectin): 47542 16-bits grayscale and 50240 16-bits grayscale
- Test Signal, GADD45 (gene GADD45): 22359 16-bits grayscale and 22287 16-bits grayscale
- Test Signal, GADD153 (gene GADD153): 23334 16-bits grayscale and 23216 16-bits grayscale
- Test Signal, GAPDH (gene GAPDH): 58466 16-bits grayscale and 60437 16-bits grayscale
- Test Signal, GSH reductase (gene GSH reductase): 24281 16-bits grayscale and 23937 16-bits grayscale
- Test Signal, Glutathione Theta 5 (gene Glutathione Theta 5): 30062 16-bits grayscale and 32113 16-bits grayscale
- Test Signal, Glutatione Ya (gene Glutatione Ya): 63398 16-bits grayscale and 63872 16-bits grayscale
- Test Signal, HGF (gene HGF): 21195 16-bits grayscale and 20996 16-bits grayscale
- Test Signal, HGPT (gene HGPT): 26564 16-bits grayscale and 27506 16-bits grayscale
- Test Signal, HMG (gene HMG): 34978 16-bits grayscale and 36070 16-bits grayscale
- Test Signal, Histone Dacetyl (gene Histone Dacetyl): 21846 16-bits grayscale and 21766 16-bits grayscale
- Test Signal, Hox2 (gene Hox2): 30000 16-bits grayscale and 29975 16-bits grayscale
- Test Signal, Hsp 70 (gene Hsp 70): 23738 16-bits grayscale and 22628 16-bits grayscale
- Test Signal, II6 (gene II6): 20776 16-bits grayscale and 20646 16-bits grayscale
- Test Signal, IKB (gene IKB): 21781 16-bits grayscale and 21227 16-bits grayscale
- Test Signal, JNK (gene JNK): 20743 16-bits grayscale and 20935 16-bits grayscale
- Test Signal, MDR1 (gene MDR1): 27172 16-bits grayscale and 26841 16-bits grayscale
- Test Signal, Macroglobulin (gene Macroglobulin): 32619 16-bits grayscale and 33165 16-bits grayscale
- Test Signal, Mgmt (gene Mgmt): 23373 16-bits grayscale and 23981 16-bits grayscale
- Test Signal, MnSOD (gene MnSOD): 26695 16-bits grayscale and 26251 16-bits grayscale
- Test Signal, Myr (gene Myr): 22905 16-bits grayscale and 22579 16-bits grayscale
- Test Signal, NFKB (gene NFKB): 21439 16-bits grayscale and 21343 16-bits grayscale
- Test Signal, ODC (gene ODC): 23381 16-bits grayscale and 23303 16-bits grayscale
- Test Signal, P38 (gene P38): 26227 16-bits grayscale and 28841 16-bits grayscale
- Test Signal, P53 (gene P53): 25848 16-bits grayscale and 25221 16-bits grayscale
- Test Signal, PCNA (gene PCNA): 23374 16-bits grayscale and 23609 16-bits grayscale
- Test Signal, PPAR (gene PPAR): 20767 16-bits grayscale and 20704 16-bits grayscale
- Test Signal, Phospho A2 (gene Phospho A2): 21966 16-bits grayscale and 21421 16-bits grayscale
- Test Signal, S29 (gene S29): 50843 16-bits grayscale and 53202 16-bits grayscale
- Test Signal, Smp30 (gene Smp30): 32696 16-bits grayscale and 31894 16-bits grayscale
- Test Signal, TGFbRII (gene TGFbRII): 22149 16-bits grayscale and 23021 16-bits grayscale
- Test Signal, TNF (gene TNF): 21082 16-bits grayscale and 20767 16-bits grayscale
- Test Signal, Telomerase (gene Telomerase): 23256 16-bits grayscale and 22745 16-bits grayscale
- Test Signal, Transferrin (gene Transferrin): 61525 16-bits grayscale and 61527 16-bits grayscale
- Test Signal, Tubulin (gene Tubulin): 36262 16-bits grayscale and 36054 16-bits grayscale
- Test Signal, UDPGT1a6 (gene UDPGT1a6): 22769 16-bits grayscale and 22766 16-bits grayscale
- Test Signal, UDPGT1a (gene UDPGT1a): 52205 16-bits grayscale and 50981 16-bits grayscale
- Test Signal, Ubiquitin (gene Ubiquitin): 59171 16-bits grayscale and 59613 16-bits grayscale

From US20100113301A1, “METHOD FOR THE IDENTIFICATION AND/OR THE QUANTIFICATION OF A TARGET COMPOUND OBTAINED FROM A BIOLOGICAL SAMPLE UPON CHIPS” (Eppendorf Array Technologies, priority 1999, published 2010)
